One experiment addresses T1, Human GlucR (Homo sapiens, UniProt P47871).
T1 construct: expressed in transfected cells
In words: cAMP activity assay in assay medium (assay 1). Format: cell-based. The conditions noted are these: assay medium. From the text:
(§1) Biological Activity of Peptides in Cell-Based cAMP Activity Assay (Assay 1):
(§2) All sample dilutions were made in duplicate.

The next experiment addresses Human GLP1R (Homo sapiens, UniProt P43220). In words: cAMP activity assay in assay medium (assay 1). Format: cell-based. Details: expressed in transfected cells. The conditions noted are these: assay medium.
Text: as §1, §2

Read-outs that look alike come from different tables or passages of the source. Numbered stars: 1 amine (or outer) side, 2 acyl side, 3 side chain; on linkers, the order of the positions; unused ones are H or OH. Side chains are listed from the residue outwards. Peptide text beside a SMILES is read from it. * marks the point of attachment. γGlu = O=C(O)[C@H](CCC(=O)[*:2])N[*:1]; Palmitoyl = CCCCCCCCCCCCCCCC(=O)*

T1 sequence (P47871 26-477): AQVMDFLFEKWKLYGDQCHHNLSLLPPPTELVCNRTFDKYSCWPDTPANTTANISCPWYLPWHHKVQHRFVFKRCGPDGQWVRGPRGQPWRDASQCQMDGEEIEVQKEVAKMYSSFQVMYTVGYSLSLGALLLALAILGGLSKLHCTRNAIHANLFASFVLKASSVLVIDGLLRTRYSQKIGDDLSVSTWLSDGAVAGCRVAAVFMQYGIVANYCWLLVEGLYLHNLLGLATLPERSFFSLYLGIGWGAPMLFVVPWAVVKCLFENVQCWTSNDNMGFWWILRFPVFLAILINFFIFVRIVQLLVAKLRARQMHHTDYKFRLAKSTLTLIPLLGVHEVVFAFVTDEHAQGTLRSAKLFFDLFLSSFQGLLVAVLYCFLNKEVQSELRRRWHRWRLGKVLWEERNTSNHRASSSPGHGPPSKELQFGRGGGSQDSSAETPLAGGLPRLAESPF
Sequence of Human GLP1R (P43220 24-463): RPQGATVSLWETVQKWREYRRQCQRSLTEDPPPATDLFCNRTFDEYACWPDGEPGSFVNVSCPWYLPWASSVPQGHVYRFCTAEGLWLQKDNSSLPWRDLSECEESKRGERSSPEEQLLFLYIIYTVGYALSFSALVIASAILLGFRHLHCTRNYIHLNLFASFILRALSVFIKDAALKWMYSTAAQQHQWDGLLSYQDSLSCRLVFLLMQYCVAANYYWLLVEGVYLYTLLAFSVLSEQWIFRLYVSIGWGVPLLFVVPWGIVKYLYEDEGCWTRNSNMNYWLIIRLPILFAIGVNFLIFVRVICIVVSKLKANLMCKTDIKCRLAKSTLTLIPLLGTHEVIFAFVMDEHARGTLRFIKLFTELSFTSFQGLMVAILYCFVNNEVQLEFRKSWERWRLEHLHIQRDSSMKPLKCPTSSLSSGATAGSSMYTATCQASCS

Regarding `CCCCCCCCCCCCCCCC(=O)N[C@@H](CCC(=O)NCCCC[C@H](NC(=O)[C@H](CCCCN)NC(=O)[C@H](CO)NC(=O)[C@H](Cc1ccc(O)cc1)NC(=O)[C@H](CC(=O)O)NC(=O)[C@H](CO)NC(=O)[C@@H](NC(=O)[C@H](Cc1ccccc1)NC(=O)[C@@H](NC(=O)CNC(=O)[C@H](CCC(N)=O)NC(=O)[C@H](CO)NC(=O)[C@@H](N)Cc1c[nH]cn1)[C@@H](C)O)[C@@H](C)O)C(=O)N[C@@H](CC(C)C)C(=O)N[C@@H](CC(=O)O)C(=O)N[C@@H](CO)C(=O)N[C@@H](CCC(=O)O)C(=O)N[C@@H](CCCNC(=N)N)C(=O)N[C@@H](C)C(=O)N[C@@H](CCCNC(=N)N)C(=O)N[C@@H](CC(=O)O)C(=O)N[C@@H](Cc1ccccc1)C(=O)N[C@H](C(=O)N[C@@H](C)C(=O)N[C@@H](Cc1c[nH]c2ccccc12)C(=O)N[C@@H](CC(C)C)C(=O)N[C@H](C(=O)N[C@@H](C)C(=O)NCC(=O)NCC(=O)O)C(C)C)C(C)C)C(=O)O` [Peptide G931] (H-HSQGTFTSDYSKK([γGlu-Palmitoyl])LDSERARDFVAWLVAGG-OH; N-terminus assumed), the EC50 (usually the concentration at which the effect is half-maximal) stood at 0.0178 nM on Human GlucR (Table 3, C-terminal acid peptides, read-out: Human GlucR EC50) and 0.13 nM on Human GLP1R (Table 3, C-terminal acid peptides, read-out: Human GLP1R EC50). For `CC(C)C[C@H](NC(=O)[C@H](Cc1ccc(O)cc1)NC(=O)[C@H](CCCCN)NC(=O)[C@H](CO)NC(=O)[C@H](Cc1ccc(O)cc1)NC(=O)[C@H](CC(=O)O)NC(=O)[C@H](CO)NC(=O)[C@@H](NC(=O)[C@H](Cc1ccccc1)NC(=O)[C@@H](NC(=O)CNC(=O)[C@H](CCC(N)=O)NC(=O)[C@H](CO)NC(=O)[C@@H](N)Cc1c[nH]cn1)[C@@H](C)O)[C@@H](C)O)C(=O)N[C@@H](CC(=O)O)C(=O)N[C@@H](CO)C(=O)N[C@@H](CCCNC(=N)N)C(=O)N[C@@H](CCCNC(=N)N)C(=O)N[C@@H](C)C(=O)N[C@@H](CCC(N)=O)C(=O)N[C@@H](CC(=O)O)C(=O)N[C@@H](Cc1ccccc1)C(=O)N[C@H](C(=O)N[C@@H](CCC(N)=O)C(=O)N[C@@H](Cc1c[nH]c2ccccc12)C(=O)N[C@@H](CC(C)C)C(=O)N[C@H](C(=O)N[C@@H](CCCNC(=N)N)C(=O)NCC(=O)NCC(=O)N[C@@H](CO)C(=O)N[C@@H](CO)C(=O)NCC(=O)NCC(=O)N[C@@H](CO)C(=O)N[C@@H](CO)C(=O)N[C@@H](CCCCN)C(N)=O)C(C)C)C(C)C` [g317], on Human GLP1R (Table 4, read-out: hGLP1R EC50), the EC50 turned out to be 2.63 nM. For the molecule `CCCCCCCCCCCCCCCC(=O)NCCCC[C@H](NC(=O)[C@H](CO)NC(=O)[C@H](CO)NC(=O)CNC(=O)CNC(=O)[C@H](CO)NC(=O)[C@H](CO)NC(=O)CNC(=O)CNC(=O)[C@H](CCCNC(=N)N)NC(=O)[C@@H](NC(=O)[C@H](CC(C)C)NC(=O)[C@H](Cc1c[nH]c2ccccc12)NC(=O)[C@H](CCC(N)=O)NC(=O)[C@@H](NC(=O)[C@H](Cc1ccccc1)NC(=O)[C@H](CC(=O)O)NC(=O)[C@H](CCC(N)=O)NC(=O)[C@H](C)NC(=O)[C@H](CCCNC(=N)N)NC(=O)[C@H](CCCNC(=N)N)NC(=O)[C@H](CO)NC(=O)[C@H](CC(=O)O)NC(=O)[C@H](CC(C)C)NC(=O)[C@H](Cc1ccc(O)cc1)NC(=O)[C@H](CCCCN)NC(=O)[C@H](CO)NC(=O)[C@H](Cc1ccc(O)cc1)NC(=O)[C@H](CC(=O)O)NC(=O)[C@H](CO)NC(=O)[C@@H](NC(=O)[C@H](Cc1ccccc1)NC(=O)[C@@H](NC(=O)CNC(=O)[C@H](CCC(N)=O)NC(=O)[C@H](CO)NC(=O)[C@@H](N)Cc1c[nH]cn1)[C@@H](C)O)[C@@H](C)O)C(C)C)C(C)C)C(N)=O` [g318], the EC50 on Human GlucR (Table 4, read-out: hGlucR EC50) is 9.04 nM; on Human GLP1R (Table 4, read-out: hGLP1R EC50), 1.14 nM.

On to `CC(C)C[C@H](NC(=O)[C@H](Cc1ccc(O)cc1)NC(=O)[C@H](CCCCN)NC(=O)[C@H](CO)NC(=O)[C@H](Cc1ccc(O)cc1)NC(=O)[C@H](CC(=O)O)NC(=O)[C@H](CO)NC(=O)[C@@H](NC(=O)[C@H](Cc1ccccc1)NC(=O)[C@@H](NC(=O)CNC(=O)[C@H](CCC(N)=O)NC(=O)[C@H](CO)NC(=O)[C@@H](N)Cc1c[nH]cn1)[C@@H](C)O)[C@@H](C)O)C(=O)N[C@@H](CC(=O)O)C(=O)N[C@@H](CO)C(=O)N[C@@H](CCCNC(=N)N)C(=O)N[C@@H](CCCNC(=N)N)C(=O)N[C@@H](C)C(=O)N[C@@H](CCC(N)=O)C(=O)N[C@@H](CC(=O)O)C(=O)N[C@@H](Cc1ccccc1)C(=O)N[C@H](C(=O)N[C@@H](CCC(N)=O)C(=O)N[C@@H](Cc1c[nH]c2ccccc12)C(=O)N[C@@H](CC(C)C)C(=O)N[C@H](C(=O)N[C@@H](CCCNC(=N)N)C(=O)NCC(=O)NCC(=O)NCC(=O)NCC(=O)NCC(=O)NCC(=O)N[C@@H](CCCCN)C(N)=O)C(C)C)C(C)C` [g325], for which, at Human GlucR (Table 4, read-out: hGlucR EC50), the half-maximal effective concentration (EC50) worked out at 0.0103 nM. Regarding `CC(C)C[C@H](NC(=O)[C@H](Cc1ccc(O)cc1)NC(=O)[C@H](CCCCN)NC(=O)[C@H](CO)NC(=O)[C@H](Cc1ccc(O)cc1)NC(=O)[C@H](CC(=O)O)NC(=O)[C@H](CO)NC(=O)[C@@H](NC(=O)[C@H](Cc1ccccc1)NC(=O)[C@@H](NC(=O)CNC(=O)[C@H](CCC(N)=O)NC(=O)[C@H](CO)NC(=O)[C@@H](N)Cc1c[nH]cn1)[C@@H](C)O)[C@@H](C)O)C(=O)N[C@@H](CC(=O)O)C(=O)N[C@@H](CO)C(=O)N[C@@H](CCCNC(=N)N)C(=O)N[C@@H](CCCNC(=N)N)C(=O)N[C@@H](C)C(=O)N[C@@H](CCC(N)=O)C(=O)N[C@@H](CC(=O)O)C(=O)N[C@@H](Cc1ccccc1)C(=O)N[C@H](C(=O)N[C@@H](CCC(N)=O)C(=O)N[C@@H](Cc1c[nH]c2ccccc12)C(=O)N[C@@H](CC(C)C)C(=O)N[C@H](C(=O)N[C@@H](CCCNC(=N)N)C(=O)NCC(=O)NCC(=O)N[C@@H](CO)C(=O)NCC(=O)N[C@@H](CO)C(=O)NCC(=O)N[C@@H](CO)C(=O)NCC(N)=O)C(C)C)C(C)C` [g402], the concentration giving a half-maximal response (EC50) was 0.0596 nM at Human GlucR (Table 4, read-out: hGlucR EC50) and 0.0857 nM on Human GLP1R (Table 4, read-out: hGLP1R EC50). In the case of `CCCCCCCCCCCCCCCC(=O)NCCCCCC(=O)NCCCC[C@H](NC(=O)[C@H](CO)NC(=O)[C@H](CC(=O)O)NC(=O)[C@H](CC(C)C)NC(=O)[C@H](Cc1ccc(O)cc1)NC(=O)[C@H](CCC(=O)O)NC(=O)[C@H](CO)NC(=O)[C@H](Cc1ccc(O)cc1)NC(=O)[C@H](CC(=O)O)NC(=O)[C@H](CO)NC(=O)[C@@H](NC(=O)[C@H](Cc1ccccc1)NC(=O)[C@@H](NC(=O)CNC(=O)[C@H](CCC(N)=O)NC(=O)CNC(=O)[C@@H](N)Cc1c[nH]cn1)[C@@H](C)O)[C@@H](C)O)C(=O)N[C@@H](CCCNC(=N)N)C(=O)N[C@@H](C)C(=O)N[C@@H](CCCNC(=N)N)C(=O)N[C@@H](CC(=O)O)C(=O)N[C@@H](Cc1ccccc1)C(=O)N[C@H](C(=O)N[C@@H](CCC(=O)O)C(=O)N[C@@H](Cc1c[nH]c2ccccc12)C(=O)N[C@@H](CC(C)C)C(=O)N[C@@H](CCC(=O)O)C(=O)N[C@@H](CCCNC(=N)N)C(=O)NCC(=O)NCC(N)=O)C(C)C` [g682], the EC50 at Human GlucR (Table 4, read-out: hGlucR EC50) came to 0.195 nM; at Human GLP1R (Table 4, read-out: hGLP1R EC50), 0.0143 nM. As for `CCCCCCCCCCCCCCCC(=O)N[C@@H](CCC(=O)NCCCC[C@H](NC(=O)[C@H](CO)NC(=O)[C@H](Cc1ccc(O)cc1)NC(=O)[C@H](CC(=O)O)NC(=O)[C@H](CO)NC(=O)[C@@H](NC(=O)[C@H](Cc1ccccc1)NC(=O)[C@@H](NC(=O)CNC(=O)[C@H](CCC(N)=O)NC(=O)CNC(=O)[C@@H](N)Cc1c[nH]cn1)[C@@H](C)O)[C@@H](C)O)C(=O)N[C@@H](Cc1ccc(O)cc1)C(=O)N[C@@H](CC(C)C)C(=O)N[C@@H](CC(=O)O)C(=O)N[C@@H](CO)C(=O)N[C@@H](CCC(=O)O)C(=O)N[C@@H](CCCNC(=N)N)C(=O)N[C@@H](C)C(=O)N[C@@H](CCC(N)=O)C(=O)N[C@@H](CC(=O)O)C(=O)N[C@@H](Cc1ccccc1)C(=O)N[C@H](C(=O)N[C@@H](CCC(N)=O)C(=O)N[C@@H](Cc1c[nH]c2ccccc12)C(=O)N[C@@H](CC(C)C)C(=O)N[C@@H](CCC(=O)O)C(=O)N[C@@H](CCCNC(=N)N)C(=O)NCC(=O)NCC(N)=O)C(C)C)C(=O)O` [g701] (H-HGQGTFTSDYSK([γGlu-Palmitoyl])YLDSERAQDFVQWLERGG-NH2; N-terminus assumed), the EC50 was found to be 3.83 nM at Human GlucR (Table 4, read-out: hGlucR EC50) and 7.4 nM at Human GLP1R (Table 4, read-out: hGLP1R EC50). Consider `CCCCCCCCCCCCCCCC(=O)N[C@@H](CCC(=O)NCCCC[C@H](NC(=O)[C@H](CO)NC(=O)[C@H](Cc1ccc(O)cc1)NC(=O)[C@H](CC(=O)O)NC(=O)[C@H](CO)NC(=O)[C@@H](NC(=O)[C@H](Cc1ccccc1)NC(=O)[C@@H](NC(=O)CNC(=O)[C@H](CCC(N)=O)NC(=O)[C@H](CO)NC(=O)[C@@H](N)Cc1c[nH]cn1)[C@@H](C)O)[C@@H](C)O)C(=O)N[C@@H](Cc1ccc(O)cc1)C(=O)N[C@@H](CC(C)C)C(=O)N[C@@H](CC(=O)O)C(=O)N[C@@H](CO)C(=O)N[C@@H](CCC(=O)O)C(=O)N[C@@H](CCCNC(=N)N)C(=O)N[C@@H](C)C(=O)N[C@@H](CCC(N)=O)C(=O)N[C@@H](CC(=O)O)C(=O)N[C@@H](Cc1ccccc1)C(=O)N[C@H](C(=O)N[C@@H](CCC(N)=O)C(=O)N[C@@H](Cc1c[nH]c2ccccc12)C(=O)N[C@@H](CC(C)C)C(=O)N[C@H](C(=O)N[C@@H](C)C(=O)NCC(=O)NCC(N)=O)C(C)C)C(C)C)C(=O)O` [g702] (H-HSQGTFTSDYSK([γGlu-Palmitoyl])YLDSERAQDFVQWLVAGG-NH2; N-terminus assumed), for which the EC50 came to 1.49 nM at Human GlucR (Table 4, read-out: hGlucR EC50) and 3.35 nM on Human GLP1R (Table 4, read-out: hGLP1R EC50).

For `CCCCCCCCCCCCCCCC(=O)N[C@@H](CCC(=O)NCCCC[C@H](NC(=O)[C@H](CO)NC(=O)[C@H](CC(=O)O)NC(=O)[C@H](CC(C)C)NC(=O)[C@H](Cc1ccc(O)cc1)NC(=O)[C@H](CCCNC(=N)N)NC(=O)[C@H](CO)NC(=O)[C@H](Cc1ccc(O)cc1)NC(=O)[C@H](CC(=O)O)NC(=O)[C@H](CO)NC(=O)[C@@H](NC(=O)[C@H](Cc1ccccc1)NC(=O)[C@@H](NC(=O)CNC(=O)[C@H](CCC(N)=O)NC(=O)CNC(=O)[C@@H](N)Cc1c[nH]cn1)[C@@H](C)O)[C@@H](C)O)C(=O)N[C@@H](CCCNC(=N)N)C(=O)N[C@@H](C)C(=O)N[C@@H](CCCNC(=N)N)C(=O)N[C@@H](CC(=O)O)C(=O)N[C@@H](Cc1ccccc1)C(=O)N[C@H](C(=O)N[C@@H](CCC(=O)O)C(=O)N[C@@H](Cc1c[nH]c2ccccc12)C(=O)N[C@@H](CC(C)C)C(=O)N[C@H](C(=O)N[C@@H](C)C(=O)NCC(=O)NCC(N)=O)C(C)C)C(C)C)C(=O)O` [g720] (H-HGQGTFTSDYSRYLDSK([γGlu-Palmitoyl])RARDFVEWLVAGG-NH2; N-terminus assumed), the EC50 at Human GlucR (Table 4, read-out: hGlucR EC50) was found to be 0.352 nM; on Human GLP1R (Table 4, read-out: hGLP1R EC50), 0.0534 nM.

The values above are taken from patent publication US20200354426A1 (MEDIMMUNE LIMITED, priority 2016, published 2020).
